Data from patent US20250230155A1 (Vanderbilt University, priority 2021, published 2025).

Target: T1, human mAChR M4 (Homo sapiens, UniProt P08173)
T1 construct: expressed in transfected cells
T1 sequence (P08173 1-479): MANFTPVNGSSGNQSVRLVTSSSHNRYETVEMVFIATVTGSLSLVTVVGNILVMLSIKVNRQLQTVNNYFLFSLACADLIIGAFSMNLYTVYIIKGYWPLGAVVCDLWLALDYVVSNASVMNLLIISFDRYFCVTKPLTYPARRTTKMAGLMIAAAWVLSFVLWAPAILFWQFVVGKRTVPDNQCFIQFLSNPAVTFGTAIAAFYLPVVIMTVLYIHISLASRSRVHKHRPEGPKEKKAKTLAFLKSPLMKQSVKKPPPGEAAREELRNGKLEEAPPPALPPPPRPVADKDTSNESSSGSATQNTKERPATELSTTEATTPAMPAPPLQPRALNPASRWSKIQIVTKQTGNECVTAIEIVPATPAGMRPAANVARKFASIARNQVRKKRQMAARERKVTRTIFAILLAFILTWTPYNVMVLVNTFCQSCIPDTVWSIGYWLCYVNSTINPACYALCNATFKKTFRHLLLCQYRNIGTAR
Assay: mAChR M4 cell-based functional assay (calcium mobilization, CHO-K1 hM4-Gqi5 cells)
Details: for Emax at 30 µM: CHO-K1, % ACh maximum at 30 μM, human M4; for EC50: positive allosteric modulator activity, increase in the EC20 acetylcholine response, CHO-K1 hM4-Gqi5 cells, read-out: Human M4 EC50
In short: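 CHO-K1 cells stably expressing human M4 with chimeric Gqi5, loaded with Fluo-4 AM; compounds given as 11-point 1:3 curves and calcium flux read on FDSS at 1 Hz. Acetylcholine EC20 added at 144 s, EC80 at 230 s; agonist, PAM (EC20 potentiation) and antagonist (EC80 inhibition) EC50/Emax from four-parameter fits.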

Row | SMILES | Emax at 30 µM | EC50
1 | Cc1cc(C(=O)NCc2ccc3c(c2)n(C)c(=O)n3C)cnc1N1CCc2ncccc2C1 [compound 158, 6-(7,8-dihydro-5H-1,6-naphthyridin-6-yl)-N-[(1,3-dimethyl-2-oxo-benzimidazol-5-yl)methyl]-5-methyl-pyridine-3-carboxamide] | 68% | 3640 nM
2 | Cc1nc(C)c(C)c(N2CCc3ncc(-c4ccc(N5CCCC5)nc4)cc3C2)n1 [compound 231, 3-(6-(pyrrolidin-1-yl)pyridin-3-yl)-6-(2,5,6-trimethylpyrimidin-4-yl)-5,6,7,8-tetrahydro-1,6-naphthyridine] | 63% | 668 nM
3 | Cc1nc(Cl)c(C)c(N2CCc3ncc(-c4c(C)nn(C)c4C)cc3C2)n1 [compound 193, 6-(6-chloro-2,5-dimethyl-pyrimidin-4-yl)-3-(1,3,5-trimethylpyrazol-4-yl)-7,8-dihydro-5H-1,6-naphthyridine] | 82% | 605 nM
4 | Cc1cc(F)c(F)cc1-c1cnc2c(c1)CN(c1ncc(C#N)cc1C)CC2 [Example 595, 6-(3-(4,5-difluoro-2-methylphenyl)-7,8-dihydro-1,6-naphthyridin-6(5H)-yl)-5-methylnicotinonitrile] | 38% | 4470 nM
5 | COc1cc(CNC(=O)c2cnc(N3CCc4ncccc4C3)c(C)c2)ccc1F [compound 152, 6-(7,8-dihydro-5H-1,6-naphthyridin-6-yl)-N-[(4-fluoro-3-methoxy-phenyl)methyl]-5-methyl-pyridine-3-carboxamide] | 64% | 2120 nM
6 | Cc1c(Cl)nc(C(F)(F)F)nc1N1CCc2ncc(-c3ccc(N(C)C)nc3)cc2C1 [compound 246, 5-(6-(6-chloro-5-methyl-2-(trifluoromethyl)pyrimidin-4-yl)-5,6,7,8-tetrahydro-1,6-naphthyridin-3-yl)-N,N-dimethylpyridin-2-amine] | 19% | 8390 nM
7 | Cc1cc(C(=O)NCc2ccno2)cnc1N1CCc2ncccc2C1 [compound 123, 6-(7,8-dihydro-5H-1,6-naphthyridin-6-yl)-N-(isoxazol-5-ylmethyl)-5-methyl-pyridine-3-carboxamide] | 82% | ≥ 10000 nM
8 | Cc1cc(C#N)nnc1N1CCc2ncc(N3CCO[C@H](C)C3)cc2C1 [Example 397, (R)-5-methyl-6-(3-(2-methylmorpholino)-7,8-dihydro-1,6-naphthyridin-6(5H)-yl)pyridazine-3-carbonitrile] | 72% | 441 nM
9 | Cc1cc(C#N)cnc1N1CCc2ncc(-c3cnn(C4CCCC4)c3)cc2C1 [compound 98, 6-[3-(1-cyclopentylpyrazol-4-yl)-7,8-dihydro-5H-1,6-naphthyridin-6-yl]-5-methyl-pyridine-3-carbonitrile] | 79% | 407 nM
10 | Cc1cc(C(=O)NCc2ccc3c(c2)CC(=O)N3)cnc1N1CCc2ncccc2C1 [compound 154, 6-(7,8-dihydro-5H-1,6-naphthyridin-6-yl)-5-methyl-N-[(2-oxoindolin-5-yl)methyl]pyridine-3-carboxamide] | 47% | 6560 nM
11 | Cc1c(C#N)nnc(N2CCc3ncc(-c4cnn(CCN5CCOCC5)c4)cc3C2)c1C [Example 325, 4,5-dimethyl-6-(3-(1-(2-morpholinoethyl)-1H-pyrazol-4-yl)-7,8-dihydro-1,6-naphthyridin-6(5H)-yl)pyridazine-3-carbonitrile] | 51% | 2950 nM
12 | COc1ccc(Oc2cnc3c(c2)CN(c2nnc(C#N)c(C)c2C)CC3)cn1 [Example 302, 6-(3-((6-methoxypyridin-3-yl)oxy)-7,8-dihydro-1,6-naphthyridin-6(5H)-yl)-4,5-dimethylpyridazine-3-carbonitrile] | 48% | 1710 nM
13 | Cc1cc(C(=O)N2CCCC2)nnc1N1CCc2ncc(C(F)(F)F)cc2C1 [Example 502, (5-methyl-6-(3-(trifluoromethyl)-7,8-dihydro-1,6-naphthyridin-6(5H)-yl)pyridazin-3-yl)(pyrrolidin-1-yl)methanone] | 105% | 3530 nM
14 | Cc1cc(C(=O)NC2CCCCC2)cnc1N1CCc2ncccc2C1 [compound 66, N-cyclohexyl-6-(7,8-dihydro-5H-1,6-naphthyridin-6-yl)-5-methyl-pyridine-3-carboxamide] | 47% | ≥ 10000 nM
15 | COc1cccc2cc(CNC(=O)c3cnc(N4CCc5ncccc5C4)c(C)c3)oc12 [compound 162, 6-(7,8-dihydro-5H-1,6-naphthyridin-6-yl)-N-[(7-methoxybenzofuran-2-yl)methyl]-5-methyl-pyridine-3-carboxamide] | 65% | 3350 nM
16 | Cc1cc(C(=O)NCc2ccc3c(c2)COC3)cnc1N1CCc2ncccc2C1 [compound 153, N-(1,3-dihydroisobenzofuran-5-ylmethyl)-6-(7,8-dihydro-5H-1,6-naphthyridin-6-yl)-5-methyl-pyridine-3-carboxamide] | 68% | 3170 nM
17 | Cc1cc(C(=O)NCc2ccc3ncnn3c2)cnc1N1CCc2ncc(-c3cn(C)nc3C)cc2C1 [Example 479, N-([1,2,4]triazolo[1,5-a]pyridin-6-ylmethyl)-6-(3-(1,3-dimethyl-1/- pyrazol-4-yl)-7,8-dihydro-1,6-naphthyridin-6(5H)-yl)-5-methylnicotinamide] | 57% | 886 nM

These reach a lower EC50. Values come first.

Row | Emax at 30 µM | EC50 | SMILES
18 | 75% | 88 nM | Cc1cc(C(=O)N2CC3(COC3)C2)nnc1N1CCc2ncc(N3CCO[C@H](C)C3)cc2C1 [Example 575, (R)-(5-methyl-6-(3-(2-methylmorpholino)-7,8-dihydro-1,6-naphthyridin-6(5H)-yl)pyridazin-3-yl)(2-oxa-6-azaspiro[3.3]heptan-6-yl)methanone]
19 | 81% | 136 nM | Cc1c(C#N)nnc(N2CCc3ncc(-c4cccnc4)cc3C2)c1C [compound 47, 4,5-dimethyl-6-[3-(3-pyridyl)-7,8-dihydro-5H-1,6-naphthyridin-6-yl]pyridazine-3-carbonitrile]
20 | 70% | 391 nM | Cc1c(C#N)nnc(N2CCc3ncc(-c4cccnc4F)cc3C2)c1C [compound 54, 6-[3-(2-fluoro-3-pyridyl)-7,8-dihydro-5H-1,6-naphthyridin-6-yl]-4,5-dimethyl-pyridazine-3-carbonitrile]
21 | 76% | 12 nM | Cc1cc(C(=O)N2CC(c3ccncc3)C2)nnc1N1CCc2ncc(N3CCCn4nccc43)cc2C1 [Example 517, (6-(3-(6,7-dihydropyrazolo[1,5-a]pyrimidin-4(5H)-yl)-7,8-dihydro-1,6-naphthyridin-6(5H)-yl)-5-methylpyridazin-3-yl)(3-(pyridin-4-yl)azetidin-1-yl)methanone]
22 | 98% | 75.8 nM | Cc1cc(F)ncc1-c1cnc2c(c1)CN(c1ncc(C(=O)NCc3nccs3)cc1C)CC2 [compound 174, 6-[3-(6-fluoro-4-methyl-3-pyridyl)-7,8-dihydro-5H-1,6-naphthyridin-6-yl]-5-methyl-N-(thiazol-2-ylmethyl)pyridine-3-carboxamide]
23 | 93% | 18 nM | Cc1cc(C(=O)N2CC(C(F)F)C2)nnc1N1CCc2ncc(N3CCCn4nccc43)cc2C1 [Example 524, (3-(difluoromethyl)azetidin-1-yl)(6-(3-(6,7-dihydropyrazolo[1,5-a]pyrimidin-4(5H)-yl)-7,8-dihydro-1,6-naphthyridin-6(5H)-yl)-5-methylpyridazin-3-yl)methanone]
24 | 100% | 268 nM | Cc1cc(C(=O)N2CC(C)(O)C2)nnc1N1CCc2ncc(N3CCO[C@H](C)C3)cc2C1 [Example 540, (R)-(3-hydroxy-3-methylazetidin-1-yl)(5-methyl-6-(3-(2-methylmorpholino)-7,8-dihydro-1,6-naphthyridin-6(5H)-yl)pyridazin-3-yl)methanone]
25 | 86% | 43 nM | Cc1cc(C#N)cnc1N1CCc2ncc(N(C)c3ccnn3C)cc2C1 [Example 331, 5-methyl-6-(3-(methyl(1-methyl-1H-pyrazol-5-yl)amino)-7,8-dihydro-1,6-naphthyridin-6(5H)-yl)nicotinonitrile]
26 | 64% | 178 nM | COc1ccc(-c2cnc3c(c2)CN(c2nnc(C#N)c(C)c2C)CC3)cn1 [Example 299, 6-(3-(6-methoxypyridin-3-yl)-7,8-dihydro-1,6-naphthyridin-6(5H)-yl)-4,5-dimethylpyridazine-3-carbonitrile]
27 | 76% | 304 nM | Cc1nc(Cl)c(C)c(N2CCc3ncc(Oc4ccc5c(cnn5C)c4)cc3C2)n1 [compound 208, 6-(6-chloro-2,5-dimethyl-pyrimidin-4-yl)-3-(1-methylindazol-5-yl)oxy-7,8-dihydro-5H-1,6-naphthyridine]
28 | 64% | 233 nM | Cc1c(C#N)nnc(N2CCc3ncc(Oc4cccc(F)c4F)cc3C2)c1C [Example 352, 6-(3-(2,3-difluorophenoxy)-7,8-dihydro-1,6-naphthyridin-6(5H)-yl)-4,5-dimethylpyridazine-3-carbonitrile]
